In patent publication US8536332B2, “Modulating signal transduction pathways with substituted pyridol [2,3-b] pyrazines” (Aeterna Zentaris GmbH, priority 2007, dated 2013):

Compound | melting point
CCNC(=S)Nc1ccc2ncc(Nc3ccc(-n4cncn4)cc3)nc2n1 [Compound 164, 1-Ethyl-3-[3-(4-[1,2,4]triazol-1-yl-phenylamino)-pyrido[2,3-b]pyrazin-6-yl]-thiourea] | 294 °C
CCNC(=S)Nc1ccc2ncc(Nc3cc(Cl)c(O)c(Cl)c3)nc2n1 [Compound 166, 1-[3-(3,5-Dichloro-4-hydroxy-phenylamino)-pyrido[2,3-b]pyrazin-6-yl]-3-ethyl-thiourea] | 278 °C
CCNC(=O)Nc1ccc2ncc(Nc3cccc(Cl)c3)nc2n1 [Compound 167, 1-[3-(3-Chloro-phenylamino)-pyrido[2,3-b]pyrazin-6-yl]-3-ethyl-urea] | 253 °C
CCNC(=S)Nc1ccc2ncc(Nc3ccc4ccccc4c3)nc2n1 [Compound 168, 1-Ethyl-3-[3-(naphthalen-2-ylamino)-pyrido[2,3-b]pyrazin-6-yl]-thiourea] | 289 °C
CCNC(=O)Nc1ccc2ncc(Nc3ccc(N(C)C)cc3)nc2n1 [Compound 169, 1-[3-(4-Dimethylamino-phenylamino)-pyrido[2,3-b]pyrazin-6-yl]-3-ethyl-urea] | 228 °C
CCNC(=O)Nc1ccc2ncc(Nc3cccc(C(C)=O)c3)nc2n1 [Compound 170, 1-[3-(3-Acetyl-phenylamino)-pyrido[2,3-b]pyrazin-6-yl]-3-ethyl-urea] | 243 °C
CNC(=O)Nc1cnc2ccc(-c3ccc(O)c(OC)c3)nc2n1 [Compound 172, 1-[6-(4-Hydroxy-3-methoxy-phenyl)-pyrido[2,3-b]pyrazin-3-yl]-3-methyl-urea] | 242 to 244 °C
CCNC(=O)Nc1cnc2ccc(-c3cccc(OC(C)C)c3)nc2n1 [Compound 177, 1-Ethyl-3-[6-(3-isopropoxy-phenyl)-pyrido[2,3-b]pyrazin-3-yl]-urea] | 234 to 237 °C
CCNC(=O)Nc1cnc2ccc(-c3ccc(C)cc3)nc2n1 [Compound 178, 1-Ethyl-3-(6-p-tolyl-pyrido[2,3-b]pyrazin-3-yl)-urea] | 227 to 228 °C
CCNC(=O)Nc1cnc2ccc(-c3cccc(N)c3)nc2n1 [Compound 179, 1-[6-(3-Amino-phenyl)-pyrido[2,3-b]pyrazin-3-yl]-3-ethyl-urea] | > 320 °C
CCNC(=O)Nc1cnc2ccc(-c3ccc(C)c(N)c3)nc2n1 [Compound 180, 1-[6-(3-Amino-4-methyl-phenyl)-pyrido[2,3-b]pyrazin-3-yl]-3-ethyl-urea] | > 320 °C
CCNC(=O)Nc1cnc2ccc(-c3ccc(O)cc3)nc2n1 [Compound 182, 1-Ethyl-3-[6-(4-hydroxy-phenyl)-pyrido[2,3-b]pyrazin-3-yl]-urea] | 277 to 279 °C
CCNC(=O)Nc1cnc2ccc(-c3ccc(C(C)=O)s3)nc2n1 [Compound 183, 1-[6-(5-Acetyl-thiophen-2-yl)-pyrido[2,3-b]pyrazin-3-yl]-3-ethyl-urea] | > 250 °C
CCNC(=O)Nc1cnc2ccc(Nc3cccc(CC(=O)O)c3)nc2n1 [Compound 194, {3-[3-(3-Ethyl-ureido)-pyrido[2,3-b]pyrazin-6-ylamino]-phenyl}-acetic acid] | 305 to 308 °C
CCNC(=O)Nc1cnc2ccc(N3CCOCC3)nc2n1 [Compound 225, 1-Ethyl-3-(6-morpholin-4-yl-pyrido[2,3-b]pyrazin-3-yl)-urea] | 243 to 245 °C
CCNC(=O)Nc1cnc2ccc(N3CCN(C)CC3)nc2n1 [Compound 227, 1-Ethyl-3-[6-(4-methyl-piperazin-1-yl)-pyrido[2,3-b]pyrazin-3-yl]-urea] | 214 to 216 °C
CCNC(=O)Nc1cnc2ccc(NCC3CC3)nc2n1 [Compound 231, 1-[6-(Cyclopropylmethyl-amino)-pyrido[2,3-b]pyrazin-3-yl]-3-ethyl-urea] | 201 to 203 °C
CCNC(=O)Nc1cnc2ccc(N3CCCN(C)CC3)nc2n1 [Compound 233, 1-Ethyl-3-[6-(4-methyl-[1,4]diazepan-1-yl)-pyrido[2,3-b]pyrazin-3-yl]-urea] | 199 to 201 °C
CCNC(=O)Nc1cnc2ccc(N3CCC(O)CC3)nc2n1 [Compound 235, 1-Ethyl-3-[6-(4-hydroxy-piperidin-1-yl)-pyrido[2,3-b]pyrazin-3-yl]-urea] | 249 to 251 °C
CCNC(=O)Nc1cnc2ccc(NCc3ccccc3)nc2n1 [Compound 239, 1-(6-Benzylamino-pyrido[2,3-b]pyrazin-3-yl)-3-ethyl-urea] | 211 to 213 °C
CCNC(=S)Nc1cnc2ccc(Nc3ccc(C4(C#N)CCCC4)cc3)nc2n1 [Compound 257, 1-{6-[4-(1-Cyano-cyclopentyl)-phenylamino]-pyrido[2,3-b]pyrazin-3-yl}-3-ethyl-thiourea] | 216 °C

Results, then the compound that gave them:

melting point | Compound
281 °C | CCNC(=O)Nc1ccc2ncc(Nc3ccc(OC)c(O)c3)nc2n1 [Compound 156, 1-Ethyl-3-[3-(3-hydroxy-4-methoxy-phenylamino)-pyrido[2,3-b]pyrazin-6-yl]-urea]
265 °C | CCNC(=S)Nc1ccc2ncc(Nc3cc(OC)cc(OC)c3)nc2n1 [Compound 157, 1-[3-(3,5-Dimethoxy-phenylamino)-pyrido[2,3-b]pyrazin-6-yl]-3-ethyl-thiourea]
276 °C | CCNC(=S)Nc1ccc2ncc(Nc3ccc(OC)c(Cl)c3)nc2n1 [Compound 159, 1-[3-(3-Chloro-4-methoxy-phenylamino)-pyrido[2,3-b]pyrazin-6-yl]-3-ethyl-thiourea]
262 °C | CCNC(=S)Nc1ccc2ncc(Nc3ccc(O)cc3)nc2n1 [Compound 161, 1-Ethyl-3-[3-(4-hydroxy-phenylamino)-pyrido[2,3-b]pyrazin-6-yl]-thiourea]
288 °C | CCNC(=S)Nc1ccc2ncc(Nc3ccc(C)c(OC)c3)nc2n1 [Compound 162, 1-Ethyl-3-[3-(3-methoxy-4-methyl-phenylamino)-pyrido[2,3-b]pyrazin-6-yl]-thiourea]
238 °C | CCNC(=S)Nc1ccc2ncc(Nc3cccc(OC(C)C)c3)nc2n1 [Compound 163, 1-Ethyl-3-[3-(3-isopropoxy-phenylamino)-pyrido[2,3-b]pyrazin-6-yl]-thiourea]
268 °C | CCNC(=S)Nc1ccc2ncc(Nc3ccc(C)c(NS(C)(=O)=O)c3)nc2n1 [Compound 165, N-{5-[6-(3-Ethyl-thioureido)-pyrido[2,3-b]pyrazin-3-ylamino]-2-methyl-phenyl}-methanesulfonamide]
248 °C | CCNC(=S)Nc1cnc2ccc(Nc3cccc(CC(=O)O)c3)nc2n1 [Compound 195, {3-[3-(3-Ethyl-thioureido)-pyrido[2,3-b]pyrazin-6-ylamino]-phenyl}-acetic acid]
211 °C | CCNC(=S)Nc1cnc2ccc(Nc3ccccc3O)nc2n1 [Compound 197, 1-Ethyl-3-[6-(2-hydroxy-phenylamino)-pyrido[2,3-b]pyrazin-3-yl]-thiourea]
258 °C | CCNC(=S)Nc1cnc2ccc(Nc3ccc(O)cc3)nc2n1 [Compound 198, 1-Ethyl-3-[6-(4-hydroxy-phenylamino)-pyrido[2,3-b]pyrazin-3-yl]-thiourea]
238 °C | CCNC(=S)Nc1cnc2ccc(Nc3cc(OC)c(OC)c(OC)c3)nc2n1 [Compound 200, 1-Ethyl-3-[6-(3,4,5-trimethoxy-phenylamino)-pyrido[2,3-b]pyrazin-3-yl]-thiourea]
260 °C | CCNC(=O)Nc1cnc2ccc(Nc3ccc(OC)c(Cl)c3)nc2n1 [Compound 201, 1-[6-(3-Chloro-4-methoxy-phenylamino)-pyrido[2,3-b]pyrazin-3-yl]-3-ethyl-urea]
225 °C | CCNC(=S)Nc1cnc2ccc(Nc3ccc(OC)c(Cl)c3)nc2n1 [Compound 202, 1-[6-(3-Chloro-4-methoxy-phenylamino)-pyrido[2,3-b]pyrazin-3-yl]-3-ethyl-thiourea]
166 °C | CCNC(=S)Nc1cnc2ccc(Nc3ccc(O)c(OC)c3)nc2n1 [Compound 203, 1-Ethyl-3-[6-(4-hydroxy-3-methoxy-phenylamino)-pyrido[2,3-b]pyrazin-3-yl]-thiourea]
166 °C | CCNC(=S)Nc1cnc2ccc(Nc3ccc(OC)c(O)c3)nc2n1 [Compound 205, 1-Ethyl-3-[6-(3-hydroxy-4-methoxy-phenylamino)-pyrido[2,3-b]pyrazin-3-yl]-thiourea]
236 °C | CCNC(=S)Nc1cnc2ccc(Nc3ccc(C)c(NS(C)(=O)=O)c3)nc2n1 [Compound 207, N-{5-[3-(3-Ethyl-thioureido)-pyrido[2,3-b]pyrazin-6-ylamino]-2-methyl-phenyl}-methanesulfonamide]
203 °C | CCNC(=S)Nc1cnc2ccc(Nc3ccc(O)c(Cl)c3)nc2n1 [Compound 208, 1-[6-(3-Chloro-4-hydroxy-phenylamino)-pyrido[2,3-b]pyrazin-3-yl]-3-ethyl-thiourea]
255 °C | CCNC(=O)Nc1cnc2ccc(Nc3ccc(C)c(OC)c3)nc2n1 [Compound 209, 1-Ethyl-3-[6-(3-methoxy-4-methyl-phenylamino)-pyrido[2,3-b]pyrazin-3-yl]-urea]
148 °C | CCNC(=S)Nc1cnc2ccc(Nc3ccc(C)c(OC)c3)nc2n1 [Compound 210, 1-Ethyl-3-[6-(3-methoxy-4-methyl-phenylamino)-pyrido[2,3-b]pyrazin-3-yl]-thiourea]
185 °C | CCNC(=S)Nc1cnc2ccc(Nc3ccc(Cl)cc3)nc2n1 [Compound 217, 1-[6-(4-Chloro-phenylamino)-pyrido[2,3-b]pyrazin-3-yl]-3-ethyl-thiourea]
189 °C | CCNC(=S)Nc1cnc2ccc(Nc3cccc(OC)c3)nc2n1 [Compound 221, 1-Ethyl-3-[6-(3-methoxy-phenylamino)-pyrido[2,3-b]pyrazin-3-yl]-thiourea]
> 220 °C | CCNC(=S)Nc1ccc2ncc(Nc3cccc(Cl)c3)nc2n1 [Compound 329, 1-[3-(3-Chloro-phenylamino)-pyrido[2,3-b]pyrazin-6-yl]-3-ethyl-thiourea]
258 °C | CCNC(=S)Nc1ccc2ncc(Nc3ccc(O)c(C)c3)nc2n1 [Compound 331, 1-Ethyl-3-[3-(4-hydroxy-3-methyl-phenylamino)-pyrido[2,3-b]pyrazin-6-yl]-thiourea]
